This is an account of results in ChEMBL document CHEMBL1806493, “Synthesis and biological activities of 4-N-(anilinyl-n-[oxazolyl])-7-chloroquinolines (n=3' or 4') against Plasmodium falciparum in in vitro models” (Bioorg Med Chem Lett, 2011).

Series [1] has as its system Plasmodium falciparum. In words: Antiplasmodial activity against chloroquine-sensitive Plasmodium falciparum 3D7 after 48 hrs using Hema 3 staining by microscopic analysis. The class given is functional, organism-based. Particulars: 3D7, 48 h.
The subject of series [2] is Plasmodium falciparum. In words: Antiplasmodial activity against chloroquine-sensitive Plasmodium falciparum 3D7A assessed as assessed as parasitaemia level at 4 days dosage of 500 uM using Hema 3 staining by microscopic analysis. The class given is functional.
Series [3] has as its system Plasmodium falciparum. Description: Antiplasmodial activity against chloroquine-sensitive Plasmodium falciparum 3D7A assessed as assessed as parasitaemia level at two days dosage of 500 uM using Hema 3 staining by microscopic analysis. The class given is functional.
The test system of series [4] is Plasmodium falciparum. In words: Antiplasmodial activity against chloroquine-resistant Plasmodium falciparum K1 after 48 hrs using Hema 3 staining by microscopic analysis. The class given is functional, organism-based. The following applies: K1, 48 h.
The nature of series [5]: Toxicity in human mononuclear leukocytes assessed as decrease in cell health at 5 to 500 uM after 5 days by microscopic analysis. The format is cell-based. The following applies: 120 h.
In series [6] the test system is Plasmodium falciparum. Description: Antiplasmodial activity against chloroquine-sensitive Plasmodium falciparum 3D7A assessed as death of all detectable parasites at two days dosage of 0.05 uM using Hema 3 staining by microscopic analysis. The format is functional, organism-based.
Series [7] concerns Plasmodium falciparum. Description: Antiplasmodial activity against chloroquine-sensitive Plasmodium falciparum 3D7A assessed as death of all detectable parasites at 4 days dosage of 0.5 to 500 uM using Hema 3 staining by microscopic analysis. The class given is functional, organism-based.
Series [8] concerns Plasmodium falciparum. Description: Antiplasmodial activity against chloroquine-sensitive Plasmodium falciparum 3D7A assessed as death of all detectable parasites at 4 days dosage of 0.05 uM using Hema 3 staining by microscopic analysis. The format is functional, organism-based.
Series [9] concerns Plasmodium falciparum. In words: Antiplasmodial activity against chloroquine-sensitive Plasmodium falciparum 3D7A assessed as death of all detectable parasites at two days dosage of 0.5 to 500 uM using Hema 3 staining by microscopic analysis. The format is functional, organism-based.
The test system of series [10] is Plasmodium falciparum. Description: Antiplasmodial activity against chloroquine-sensitive Plasmodium falciparum 3D7A assessed as parasitaemia level at 4 days dosage of 5 uM using Hema 3 staining by microscopic analysis. The format is functional.
The subject of series [11] is Plasmodium falciparum. In words: Antiplasmodial activity against chloroquine-sensitive Plasmodium falciparum 3D7A assessed as death of all detectable parasites at 4 days dosage of 50 to 500 uM using Hema 3 staining by microscopic analysis. The class given is functional, organism-based.
Series [12] concerns Plasmodium falciparum. Description: Antiplasmodial activity against chloroquine-sensitive Plasmodium falciparum 3D7A assessed as parasitaemia level at 4 days dosage of 5 uM measured on day 9 using Hema 3 staining by microscopic analysis. The format is functional.
Series [13] has as its system Plasmodium falciparum. In words: Antiplasmodial activity against chloroquine-sensitive Plasmodium falciparum 3D7A assessed as death of all detectable parasites at two days dosage of 50 to 500 uM using Hema 3 staining by microscopic analysis. The format is functional, organism-based.
Series [14] concerns Plasmodium falciparum. Description: Antiplasmodial activity against chloroquine-sensitive Plasmodium falciparum 3D7A assessed as parasitaemia level at two days dosage of 5 uM measured on day 2 using Hema 3 staining by microscopic analysis. The format is functional.
Series [15] relates to Plasmodium falciparum. In words: Antiplasmodial activity against chloroquine-sensitive Plasmodium falciparum 3D7A assessed as parasitaemia level at two days dosage of 5 uM measured on day 9 using Hema 3 staining by microscopic analysis. The class given is functional.
The test system of series [16] is Plasmodium falciparum. Description: Antiplasmodial activity against chloroquine-sensitive Plasmodium falciparum 3D7A assessed as undetectable parasitaemia level at 4 days dosage of 5 uM measured on day 3 using Hema 3 staining by microscopic analysis. The format is functional, organism-based.

Activity calls are given as the source filed them. The calls are words filed in the database; no cut-off is given here. Where only a bound is given, the exact number is not on record here.

As for `CC1(C)COC(c2ccc(Nc3ccnc4cc(Cl)ccc34)cc2)=N1`, the 50% inhibitory concentration (IC50) is 308 nM in the series on Plasmodium falciparum [1] and over 1000 nM with Plasmodium falciparum [4]. Further, the Activity in the series on Plasmodium falciparum [2] and with Plasmodium falciparum [3] was 0% each time.

Take `CCN(CC)CCCC(C)Nc1ccnc2cc(Cl)ccc12` (stereo not given) [CHLOROQUINE]: the Activity result in series [5] is listed as “Toxic”. Moreover, the outcome with Plasmodium falciparum [6] and with Plasmodium falciparum [8] was inactive. Besides, the outcome in the series on Plasmodium falciparum [7] and in the series with Plasmodium falciparum [9] was Active.

With `Clc1ccc2c(Nc3cccc(C4=NCCO4)c3)ccnc2c1`, the values for the Activity entry (in series [5]; in the series with Plasmodium falciparum [10]; in the series with Plasmodium falciparum [12]) were “Toxic”, 0% and 5%, respectively. For the same compound, the figures for the concentration for half-maximal inhibition (IC50) in the series with Plasmodium falciparum [1] and in the series with Plasmodium falciparum [4] were 91 nM and 895 nM, respectively. In addition, the outcome in the series on Plasmodium falciparum [11] and with Plasmodium falciparum [13] was Active.

In the series on Plasmodium falciparum [4], `O=C1C(O)=C([C@H]2CC[C@H](c3ccc(Cl)cc3)CC2)C(=O)c2ccccc21` [ATOVAQUONE] displayed an IC50 of 17.7 nM.

For the compound `Clc1ccc2c(Nc3ccc(C4=NCCO4)cc3)ccnc2c1`, the figures for the Activity result (in [5]; in the series on Plasmodium falciparum [14]; in the series with Plasmodium falciparum [15]) were “Toxic”, 0.25% and 5%, respectively. For the same compound, the half-inhibitory concentration (IC50) in the series with Plasmodium falciparum [1] was 192 nM; with Plasmodium falciparum [4], 846 nM. Also, the outcome in the series with Plasmodium falciparum [11], in the series on Plasmodium falciparum [16] and in the series on Plasmodium falciparum [13] was Active.

As to `CC1(C)COC(c2cccc(Nc3ccnc4cc(Cl)ccc34)c2)=N1`, the Activity result in [5] is “Toxic”. In addition, the results for the half-maximal inhibitory concentration (IC50) in the series on Plasmodium falciparum [1] and in the series with Plasmodium falciparum [4] were 83 nM and 711 nM, respectively. The result in the series on Plasmodium falciparum [11] and with Plasmodium falciparum [13] was Active.

Usually IC50 stands for the midpoint of a concentration-inhibition curve. The low end stands for greater potency in that assay, the high end for weaker potency in that assay.
